Reference: patent publication US4988687A, “Cephalosporin derivatives, and antibacterial agents” (priority 1986, dated 1991)
In brackets after ≈: the same amount, converted by molar mass. Like-named read-outs stand apart in the source and are kept apart here.

Assays:
[1] = test system: Ps. maltophilia GN 12873; assay: agar plate dilution method, MIC against Ps. maltophilia GN 12873; format: cell-based, Pseudomonas maltophilia; settings: Stenotrophomonas maltophilia, GN12873; Ps. maltophilia GN 12873 (lactamase-producing strain); 10^6 CFU/ml, 37° C., 16 hours; read-out: Minimum Inhibitory Concentration (MIC)
Description: (§1) The in vitro antibacterial activities of the compounds of the present invention against various microorganisms, were measured by the following agar plate dilution method. One platinum loopfull of each test microorganism incubated overnight in Mueller Hinton broth, was inoculated to Mueller Hinton agar (inoculum size: 10^6 CFU/ml) Such culture media containing various antibiotics in various concentrations were prepared After incubation at 37° C. for 16 hours, the minimum inhibitory concentrations (MIC: μg/ml) were measured. As comparative compounds, cefotaxime, oeftazidime and the compounds disclosed in Example 2 of Japanese Unexamined Patent Publication No. 215690/1985 e.g. sodium 7-[2-(2-aminothiazol-4-yl)-2-ethoxyiminoacetamido]-3-(1-carboxylatemethylpyridinio-4-yl)thiomethyl-3-cephem-4-carboxylate (hereinafter referred to simply as "Reference Example A") were employed.

[2] = test system: S. aureus JS1; assay: agar plate dilution method, MIC against S. aureus JS1; format: cell-based; settings: Staphylococcus aureus, read-out: Minimum Inhibitory Concentration (MIC)
Description: as §1

[3] = test system: Ps. aeruginosa AK 109; assay: agar plate dilution method, MIC against Ps. aeruginosa AK 109; format: cell-based; settings: Pseudomonas aeruginosa, read-out: Minimum Inhibitory Concentration (MIC)
Description: as §1

[4] = test system: Ps. aeruginosa AKR17; assay: agar plate dilution method, MIC against Ps. aeruginosa AKR17; format: cell-based; settings: Pseudomonas aeruginosa; Ps. aeruginosa AKR17; 10^6 CFU/ml, 37° C., 16 hours; read-out: Minimum Inhibitory Concentration (MIC)
Description: as §1

[5] = test system: S. aureus BB5703; assay: agar plate dilution method, MIC against S. aureus BB5703; format: cell-based; settings: Staphylococcus aureus, read-out: Minimum Inhibitory Concentration (MIC)
Description: as §1

[6] = test system: E. coli CSH2 (RK1); assay: agar plate dilution method, MIC against E. coli CSH2 (RK1); format: cell-based; settings: Escherichia coli, 16 h, read-out: Minimum Inhibitory Concentration (MIC)
Description: as §1

[7] = test system: P. vulgaris No. 33; assay: agar plate dilution method, MIC against P. vulgaris No. 33; format: cell-based; settings: Proteus vulgaris, read-out: Minimum Inhibitory Concentration (MIC)
Description: as §1

[8] = test system: S. aureus 209P NIHJ-JC1; assay: agar plate dilution method, MIC against S. aureus 209P NIHJ-JC1; format: cell-based; settings: Staphylococcus aureus, read-out: Minimum Inhibitory Concentration (MIC)
Description: as §1

[9] = test system: A. calcoaceticus No. 4; assay: agar plate dilution method, MIC against A. calcoaceticus No. 4; format: cell-based; settings: Acinetobacter calcoaceticus, read-out: Minimum Inhibitory Concentration (MIC)
Description: as §1

[10] = test system: C. freundii GN346; assay: agar plate dilution method, MIC against C. freundii GN346; format: cell-based; settings: Citrobacter freundii; C. freundii GN346 (lactamase-producing strain); 10^6 CFU/ml, 37° C., 16 hours; read-out: Minimum Inhibitory Concentration (MIC)
Description: as §1

[11] = test system: C. freundii GN346/16; assay: agar plate dilution method, MIC against C. freundii GN346/16; format: cell-based; settings: Citrobacter freundii, read-out: Minimum Inhibitory Concentration (MIC)
Description: as §1

[12] = test system: K. oxytoca GN10650; assay: agar plate dilution method, MIC against K. oxytoca GN10650; format: cell-based; settings: Klebsiella oxytoca; K. oxytoca GN10650 (lactamase-producing strain); 10^6 CFU/ml, 37° C., 16 hours; read-out: Minimum Inhibitory Concentration (MIC)
Description: as §1

[13] = test system: E. coli NIHJ JC2; assay: agar plate dilution method, MIC against E. coli NIHJ JC2; format: cell-based; settings: Escherichia coli, NIHJJC2; E. coli NIHJ JC2; 10^6 CFU/ml, 37° C., 16 hours; read-out: Minimum Inhibitory Concentration (MIC)
Description: as §1

[14] = test system: Ps. aeruginosa IFO3445; assay: agar plate dilution method, MIC against Ps. aeruginosa IFO3445; format: cell-based; settings: Pseudomonas aeruginosa, IFO3445, 16 h, read-out: Minimum Inhibitory Concentration (MIC)
Description: as §1

[15] = test system: S. epidermidis IAM12012; assay: agar plate dilution method, MIC against S. epidermidis IAM12012; format: cell-based; settings: Staphylococcus epidermidis, IAM12012, 16 h, read-out: Minimum Inhibitory Concentration (MIC)
Description: as §1

[16] = test system: M. luteus ATCC9341; assay: agar plate dilution method, MIC against M. luteus ATCC9341; format: cell-based; settings: Micrococcus luteus, read-out: Minimum Inhibitory Concentration (MIC)
Description: as §1

[17] = test system: P. vulgaris HX-19; assay: agar plate dilution method, MIC against P. vulgaris HX-19; format: cell-based; settings: Proteus vulgaris, HX19, 16 h, read-out: Minimum Inhibitory Concentration (MIC)
Description: as §1

[18] = test system: E. coli CSH(RE45); assay: agar plate dilution method, MIC against E. coli CSH(RE45); format: cell-based; settings: Escherichia coli, 16 h, read-out: Minimum Inhibitory Concentration (MIC)
Description: as §1

[19] = test system: K. pneumoniae No. 42; assay: agar plate dilution method, MIC against K. pneumoniae No. 42; format: cell-based; settings: Klebsiella pneumoniae; K. pneumoniae No. 42 (lactamase-producing strain); 10^6 CFU/ml, 37° C., 16 hours; read-out: Minimum Inhibitory Concentration (MIC)
Description: as §1

[20] = test system: Ps. cepacia 23; assay: agar plate dilution method, MIC against Ps. cepacia 23; format: cell-based, Pseudomonas cepacia; settings: Burkholderia cepacia, 23, 16 h, read-out: Minimum Inhibitory Concentration (MIC)
Description: as §1

[21] = test system: K. pneumoniae PCI-602; assay: agar plate dilution method, MIC against K. pneumoniae PCI-602; format: cell-based; settings: Klebsiella pneumoniae, PCI602, 16 h, read-out: Minimum Inhibitory Concentration (MIC)
Description: as §1

[22] = test system: E. cloacae 963; assay: agar plate dilution method, MIC against E. cloacae 963; format: cell-based; settings: read-out: Minimum Inhibitory Concentration (MIC)
Description: as §1

[23] = test system: S. marcescens IAM 1184; assay: agar plate dilution method, MIC against S. marcescens IAM 1184; format: cell-based; settings: Serratia marcescens, read-out: Minimum Inhibitory Concentration (MIC)
Description: as §1

[24] = test system: M. morganii GN5407; assay: agar plate dilution method, MIC against M. morganii GN5407; format: cell-based; settings: Morganella morganii; M. morganii GN5407 (lactamase-producing strain); 10^6 CFU/ml, 37° C., 16 hours; read-out: Minimum Inhibitory Concentration (MIC)
Description: as §1

[25] = test system: E. coli GN5482; assay: agar plate dilution method, MIC against E. coli GN5482; format: cell-based; settings: Escherichia coli; E. coli GN5482 (lactamase-producing strain); 10^6 CFU/ml, 37° C., 16 hours; read-out: Minimum Inhibitory Concentration (MIC)
Description: as §1

[26] = test system: E. cloacae Nek 39; assay: agar plate dilution method, MIC against E. cloacae Nek 39; format: cell-based; settings: Enterobacter cloacae, NEK39; E. cloacae Nek 39 (lactamase-producing strain); 10^6 CFU/ml, 37° C., 16 hours; read-out: Minimum Inhibitory Concentration (MIC)
Description: as §1

[27] = test system: S. marcescens No. 16-2; assay: agar plate dilution method, MIC against S. marcescens No. 16-2; format: cell-based; settings: Serratia marcescens, NO.162, 16 h, read-out: Minimum Inhibitory Concentration (MIC)
Description: as §1

Row | SMILES | MIC [1] | MIC [4] | MIC [6] | MIC [10] | MIC [12] | MIC [13] | MIC [14] | MIC [15] | MIC [17] | MIC [18] | MIC [19] | MIC [20] | MIC [21] | MIC [24] | MIC [25] | MIC [26] | MIC [27] | further results
1 | Nc1nc(/C(=N/Oc2ccccc2)C(=O)NC2C(=O)N3C(C(=O)[O-])=C(CSc4cc[n+](CC(=O)O)cc4)CSC23)cs1 (stereo not drawn) [Example 7, sodium 7-[2-(2-aminothiazol-4-yl)-2-phenoxyiminoacetamido]-3-(1-carboxylatemethylpyridinio-4-yl)thiomethYl-3-cephem-4-carboxylate (syn-isomer)] | > 100 µg/mL | > 100 µg/mL | 0.78 µg/mL | 50 µg/mL | 25 µg/mL | 0.78 µg/mL | 12.5 µg/mL | 0.2 µg/mL | < 0.006 µg/mL | 0.78 µg/mL | 3.12 µg/mL | 3.12 µg/mL | 0.025 µg/mL | 0.78 µg/mL | 1.56 µg/mL | 12.5 µg/mL | 12.5 µg/mL | MIC ([2]; JS1, 16 h): 12.5 µg/mL; MIC ([3]; AK109, Ps. aeruginosa AK 109, 10^6 CFU/ml, 37° C., 16 hours): 25 µg/mL; MIC ([5]; BB5703, 16 h): 3.12 µg/mL; MIC ([7]; P. vulgaris No. 33 (lactamase-producing strain), 10^6 CFU/ml, 37° C., 16 hours): 0.78 µg/mL; MIC ([8]; S. aureus 209P NIHJ-JC1, 10^6 CFU/ml, Mueller Hinton agar, 37° C., 16 hours): 0.39 µg/mL; MIC ([9]; NO.4, 16 h): 3.12 µg/mL; MIC ([11]; GN346, 16 h): 1.56 µg/mL; MIC ([16]; M. luteus ATCC9341, 10^6 CFU/ml, 37° C., 16 hours): 0.1 µg/mL; MIC ([22]; Enterobacter cloacae, 963, 16 h): 3.12 µg/mL; MIC ([23]; IAM1184, S. marcescens IAM 1184, 10^6 CFU/ml, 37° C., 16 hours): 0.78 µg/mL
2 | C=C(O/N=C(\C(=O)NC1C(=O)N2C(C(=O)[O-])=C(CSc3cc[n+](CC(=O)O)cc3)CSC12)c1csc(N)n1)C(=O)O (stereo not drawn) [Example 1, 7-[2-(2-aminothiazol-4-yl)-2-(1-carboxy-1-vinyloxyimino)acetamido]-3-(1-carboxymethylpyridinio-4-yl)thiomethyl-4-carboxylate (syn-isomer)] | > 100 µg/mL | > 100 µg/mL | 0.05 µg/mL (≈ 0.0806 µM) | 25 µg/mL (≈ 40.3 µM) | 0.2 µg/mL (≈ 0.322 µM) | 0.1 µg/mL (≈ 0.161 µM) | 1.56 µg/mL (≈ 2.51 µM) | 1.56 µg/mL (≈ 2.51 µM) | < 0.006 µg/mL | 0.1 µg/mL (≈ 0.161 µM) | 0.2 µg/mL (≈ 0.322 µM) | 1.56 µg/mL (≈ 2.51 µM) | < 0.006 µg/mL | 0.0125 µg/mL (≈ 0.0201 µM) | 0.2 µg/mL (≈ 0.322 µM) | 0.78 µg/mL (≈ 1.26 µM) | 1.56 µg/mL (≈ 2.51 µM) | MIC ([2]; S. aureus JS1 (methicilline resistant; lactamase-producing strain), 10^6 CFU/ml, 37° C., 16 hours): 50 µg/mL (≈ 80.6 µM); MIC ([3]; AK109, 16 h): 3.12 µg/mL (≈ 5.03 µM); MIC ([5]; S. aureus BB5703, 10^6 CFU/ml, 37° C., 16 hours): 25 µg/mL (≈ 40.3 µM); MIC ([7]; NO.33, 16 h): 0.0125 µg/mL (≈ 0.0201 µM); MIC ([8]; 16 h): 3.12 µg/mL (≈ 5.03 µM); MIC ([9]; A. calcoaceticus No. 4, 10^6 CFU/ml, 37° C., 16 hours): 50 µg/mL (≈ 80.6 µM); MIC ([11]; C. freundii GN346/16, 10^6 CFU/ml, 37° C., 16 hours): 0.1 µg/mL (≈ 0.161 µM); MIC ([16]; ATCC9341, 16 h): 1.56 µg/mL (≈ 2.51 µM); MIC ([22]; Enterobacter cloacae, E. cloacae 963, 10^6 CFU/ml, 37° C., 16 hours): 0.1 µg/mL (≈ 0.161 µM); MIC ([23]; IAM1184, 16 h): < 0.006 µg/mL
